Source: article PMC12993615 (The journal of pain, 2024)

What was measured:
[1] = biological target: T1, FABP4 (Homo sapiens, UniProt P15090); assay: FABP4 binding, commercially available kit (Cayman Chemical); conditions: commercial kit
T1 construct: purchased Cayman Chemical
Method: Purified FABPs were incubated with 11-(dansylamino)undecanoic acid (DAUDA) (FABP3, FABP5) or 8-anilino-1-naphthalenesulfonic acid (ANS) (FABP7) in the presence or absence of FABP inhibitors (.01–200 μM) in the binding assay buffer. FABP4 binding was assessed using a commercially available kit (Cayman Chemical, Ann Arbor). In all cases, arachidonic acid (10 μM) was included to account for maximal probe displacement. Loss of fluorescence intensity was monitored with an F5 Filtermax Multi-Mode Microplate Reader (Molecular Devices, Sunnyvale) using the following excitation and emission wavelengths (DAUDA: ex./em.= 360/535 nm; ANS: ex./em. = 360/465 nm). Following background subtraction, the fluorescence intensity values were normalised and analyzed via a one-site binding model using the GraphPadPrism (version 9.2). Ki values were determined using the following equation: Ki= IC50/(1 + ([Probe]/Kd).

[2] = Oral bioavailability / pharmacokinetics in rats; assay type: in vivo; conditions: Sprague Dawley, rat, plasma, male rats
Method: Following intravenous and oral administration, blood samples (ca .2 mL) were collected from the jugular vein. For IV group, blood samples were collected at .083, .25, .5, 1, 2, 4, 6, 8, 24 hours post-dose. For PO group, blood samples were collected at .25, .5, 1, 2, 4, 6, 8, 24 hours post-dose. Blood samples were collected into tubes containing the anticoagulant K2EDTA. Plasma samples were prepared by centrifugation and dispensed into 1.5 mL matrix tubes and stored in a freezer (−75 ± 1°C) prior to analysis.

[3] = biological target: T2, CCK1 [cholecystokinin A receptor] (Homo sapiens, UniProt P32238); assay: Secondary pharmacology panel (87 targets); assay type: binding; conditions: test concentration 30 µM
T2 sequence (P32238 1-428): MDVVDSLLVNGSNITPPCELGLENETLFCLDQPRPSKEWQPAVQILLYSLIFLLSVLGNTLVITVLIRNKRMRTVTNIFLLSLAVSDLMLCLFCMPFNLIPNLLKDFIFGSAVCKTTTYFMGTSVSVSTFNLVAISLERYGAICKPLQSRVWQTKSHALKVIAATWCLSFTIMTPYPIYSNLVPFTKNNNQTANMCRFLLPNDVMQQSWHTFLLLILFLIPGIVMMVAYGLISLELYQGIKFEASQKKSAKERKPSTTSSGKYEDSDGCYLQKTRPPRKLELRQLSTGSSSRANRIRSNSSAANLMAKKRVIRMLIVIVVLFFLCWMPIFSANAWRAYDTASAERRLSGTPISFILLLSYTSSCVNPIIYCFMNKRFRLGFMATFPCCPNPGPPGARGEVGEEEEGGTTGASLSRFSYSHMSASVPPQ
Source text: Findings were considered significant if ≥50% inhibition of ligand binding or ≥50% stimulation/inhibition were shown in biochemical assays. Those receptors with values ≥50% were further evaluated for binding and functional half-maximal inhibitory concentrations (IC50).

[4] = test system: oxaliplatin-induced mechanical allodynia; assay: 7-day treatment of established OIPN, paw withdrawal threshold; assay type: in vivo, male Sprague Dawley rats; conditions: 25 mg/kg BID PO 7 days, across Days 7 and 14, P < .05
Method: Male Sprague Dawley rats (150–210 g) were housed in groups of 4 in intra-ventilated Perspex home cages. Humidity, temperature (21 ± 1 °C), and lighting (light-dark cycle of 12:12 hours) were controlled and maintained in the home cages, with food and water available ad libitum. Rats acclimatised to the home cages for at least 1 week. All experiments were carried out according to the Animals (Scientific Procedures) Act, 1986 (U.K. Government Home Office). The study was performed under the Home Office project licence number PP0847012. OIPN was established with a single dose of OXA (10 mg/kg, IP).
Body weight was monitored throughout the study, and terminal plasma and whole brain samples were taken for bioanalysis.
Tactile allodynia (primary outcome measure) was assessed using paw withdrawal threshold (PWT), a measure of pain sensitivity. PWT was evaluated using calibrated von-Frey monofilaments (Touch-Test Sensory Evaluator; Scientific Marketing Associates) applied to the plantar surface of the left hind paw. PWT was determined by increasing and decreasing stimulus intensity and estimated using Dixon’s up-down method.[38],[39]
To acquire baseline readings, pain behaviour was assessed on 3 consecutive days (Days −3, −2, −1). […] NPB expressed as a percentage change from HBL was calculated as follows (HBL-NPB)/HBL*100. […]

[5] = test system: oxaliplatin-induced thermal hyperalgesia; assay: 7-day treatment of established OIPN, cold plate latency; assay type: in vivo, male Sprague Dawley rats; conditions: 7 days dosing, vehicle close to HBL by Day 14
Method: Male Sprague Dawley rats (150–210 g) were housed in groups of 4 in intra-ventilated Perspex home cages. Humidity, temperature (21 ± 1 °C), and lighting (light-dark cycle of 12:12 hours) were controlled and maintained in the home cages, with food and water available ad libitum. Rats acclimatised to the home cages for at least 1 week. All experiments were carried out according to the Animals (Scientific Procedures) Act, 1986 (U.K. Government Home Office). The study was performed under the Home Office project licence number PP0847012. OIPN was established with a single dose of OXA (10 mg/kg, IP). […] Body weight was monitored throughout the study, and terminal plasma and whole brain samples were taken for bioanalysis. Thermal hyperalgesia was assessed using a cold plate (Bioseb, France) set at a fixed temperature of 15 °C. Latency to the first escape behaviour from the plate was measured indicating discomfort to the thermal stimulation. Escape behaviours typically consist of paw licking, jumping, or withdrawal. The maximal threshold of latency was set at 150 seconds. To acquire baseline readings, pain behaviour was assessed on 3 consecutive days (Days −3, −2, −1). The mean of Day −2 and Day −1 was considered the healthy baseline (HBL) prior to OIPN induction. […] NPB expressed as a percentage change from HBL was calculated as follows (HBL-NPB)/HBL*100. […]

T1 sequence (P15090 whole entry, species assumed): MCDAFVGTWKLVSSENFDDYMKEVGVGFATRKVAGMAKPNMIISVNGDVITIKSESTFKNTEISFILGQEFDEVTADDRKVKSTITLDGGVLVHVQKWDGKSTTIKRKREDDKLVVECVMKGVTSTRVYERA

COc1ccccc1[C@@H]1[C@H](C(=O)O)[C@@H](c2ccccc2OC)[C@H]1C(=O)OC1Cc2ccccc2C1 [ART26.12, (+)–3-Indan-2-yloxycarbonyl-2,4-bis(2-methoxyphenyl)cyclobutanecarboxylic acid]
Ki [1]: > 100 µM
clearance ([2]; IV 2 mg/kg): 14 mL/min/kg
half-life ([2]; IV 2 mg/kg): 2.6 h
Vd ([2]; IV 2 mg/kg, read-out: volume of distribution): 1.3 L/kg
Tmax ([2]; PO 10 mg/kg): ~0.5 h
Tmax ([2]; PO 300 mg/kg): ~6.6 h
bioavailability ([2]; PO 300 mg/kg): 163%
half-life ([2]; PO 300 mg/kg): 3.8 h
bioavailability ([2]; single oral dose 10 mg/kg): 73%
binding to CCK1 in secondary pharmacology screening [3]: greater than 50%
PWT scores versus vehicle [4]: significantly higher PWT scores than vehicle
cold plate latency [5]: no effect on cold plate latency
